Measurements published in PubChem BioAssay (NCI).
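Interpolation was linear, between the two tested concentrations surrounding the appropriate level; five concentrations were tested over 48 hours in 96-well plates. Definition used: TGI = concentration required for complete inhibition of growth.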

Tests used:
Assay in all cases: NCI-60 cell line screen, 48 h
HCT-116 colon = system: HCT-116 colon
SR leukemia = system: SR leukemia
HOP-62 NSCLC = system: HOP-62 NSCLC
OVCAR-8 ovarian = system: OVCAR-8 ovarian
SF-539 CNS = system: SF-539 CNS
XF 498 CNS = system: XF 498 CNS
SK-MEL-2 melanoma = system: SK-MEL-2 melanoma
EKVX NSCLC = system: EKVX NSCLC
IGROV1 ovarian = system: IGROV1 ovarian
SNB-19 CNS = system: SNB-19 CNS
SK-MEL-28 melanoma = system: SK-MEL-28 melanoma
KM20L2 colon = system: KM20L2 colon
M14 melanoma = system: M14 melanoma
K-562 leukemia = system: K-562 leukemia
SW-620 colon = system: SW-620 colon
LOX IMVI melanoma = system: LOX IMVI melanoma
RXF 393 renal = system: RXF 393 renal
LXFL 529 NSCLC = system: LXFL 529 NSCLC
M19-MEL melanoma = system: M19-MEL melanoma
HL-60(TB) leukemia = system: HL-60(TB) leukemia
COLO 205 colon = system: COLO 205 colon
SN12C renal = system: SN12C renal
UACC-62 melanoma = system: UACC-62 melanoma
SK-OV-3 ovarian = system: SK-OV-3 ovarian
NCI-H460 lung = system: NCI-H460 lung
RPMI-8226 leukemia = system: RPMI-8226 leukemia
CAKI-1 renal = system: CAKI-1 renal
SF-268 CNS = system: SF-268 CNS
HCC-2998 colon = system: HCC-2998 colon
SK-MEL-5 melanoma = system: SK-MEL-5 melanoma
UACC-257 melanoma = system: UACC-257 melanoma
U251 CNS = system: U251 CNS
TK-10 renal = system: TK-10 renal
CCRF-CEM leukemia = system: CCRF-CEM leukemia
DMS 114 small cell lung = system: DMS 114 small cell lung
DLD-1 colon = system: DLD-1 colon
SNB-78 CNS = system: SNB-78 CNS
UO-31 renal = system: UO-31 renal
HCT-15 colon = system: HCT-15 colon
HOP-18 NSCLC = system: HOP-18 NSCLC
OVCAR-5 ovarian = system: OVCAR-5 ovarian
ACHN renal = system: ACHN renal
KM12 colon = system: KM12 colon
786-0 renal = system: 786-0 renal
MOLT-4 leukemia = system: MOLT-4 leukemia
HOP-92 NSCLC = system: HOP-92 NSCLC
HT29 colon = system: HT29 colon
SF-295 CNS = system: SF-295 CNS
DMS 273 small cell lung = system: DMS 273 small cell lung
OVCAR-3 ovarian = system: OVCAR-3 ovarian
OVCAR-4 ovarian = system: OVCAR-4 ovarian
SNB-75 CNS = system: SNB-75 CNS
NCI-H226 lung = system: NCI-H226 lung
NCI-H23 lung = system: NCI-H23 lung
A549 NSCLC = system: A549 NSCLC
MALME-3M melanoma = system: MALME-3M melanoma
NCI-H522 lung = system: NCI-H522 lung

FC(F)(F)C1(Cl)C(Cl)(c2ccccc2)C1(Cl)c1ccccc1 (stereo not drawn)
TGI (HCT-116 colon): 24.8 µM | TGI (SR leukemia): 25.8 µM | TGI (HOP-62 NSCLC): 30 µM | TGI (OVCAR-8 ovarian): 32.2 µM | TGI (SF-539 CNS): 30.4 µM | TGI (XF 498 CNS): 29.3 µM | TGI (SK-MEL-2 melanoma): 29.1 µM | TGI (EKVX NSCLC): 30.1 µM | TGI (IGROV1 ovarian): 26 µM | TGI (SNB-19 CNS): 32.5 µM | TGI (SK-MEL-28 melanoma): 28.2 µM | TGI (KM20L2 colon): 26.9 µM | TGI (M14 melanoma): 30.2 µM | TGI (K-562 leukemia): > 100 µM | TGI (SW-620 colon): 29.1 µM | TGI (LOX IMVI melanoma): 26.8 µM | TGI (RXF 393 renal): 27.7 µM | TGI (LXFL 529 NSCLC): 29.9 µM | TGI (M19-MEL melanoma): 29 µM | TGI (HL-60(TB) leukemia): > 100 µM | TGI (COLO 205 colon): 33.4 µM | TGI (SN12C renal): 28.6 µM | TGI (UACC-62 melanoma): 29.7 µM | TGI (SK-OV-3 ovarian): 54.7 µM | TGI (NCI-H460 lung): 30.5 µM | TGI (RPMI-8226 leukemia): > 100 µM | TGI (CAKI-1 renal): 25.6 µM | TGI (SF-268 CNS): 31.7 µM | TGI (HCC-2998 colon): 31.1 µM | TGI (SK-MEL-5 melanoma): 26.9 µM | TGI (UACC-257 melanoma): 28.1 µM | TGI (U251 CNS): 28.3 µM | TGI (TK-10 renal): 32.8 µM | TGI (CCRF-CEM leukemia): 55 µM | TGI (DMS 114 small cell lung): 29.2 µM | TGI (DLD-1 colon): 29.1 µM | TGI (SNB-78 CNS): 33.2 µM | TGI (UO-31 renal): 28.1 µM | TGI (HCT-15 colon): 26.8 µM | TGI (HOP-18 NSCLC): 23.1 µM | TGI (OVCAR-5 ovarian): 30 µM | TGI (ACHN renal): 29.5 µM | TGI (KM12 colon): 29 µM | TGI (786-0 renal): 29.5 µM | TGI (MOLT-4 leukemia): 35.4 µM | TGI (HOP-92 NSCLC): 24.8 µM | TGI (HT29 colon): 28.2 µM | TGI (SF-295 CNS): 29.4 µM | TGI (DMS 273 small cell lung): 28.2 µM | TGI (OVCAR-3 ovarian): 28.1 µM | TGI (OVCAR-4 ovarian): 27.3 µM | TGI (SNB-75 CNS): 29.9 µM | TGI (NCI-H226 lung): 27.4 µM | TGI (NCI-H23 lung): 27.5 µM | TGI (A549 NSCLC): 28 µM

CCC(=C(C#N)C#N)c1cc(OC)c(OC)c(OC)c1
TGI (HCT-116 colon): > 100 µM | TGI (SR leukemia): > 100 µM | TGI (HOP-62 NSCLC): > 100 µM | TGI (OVCAR-8 ovarian): > 100 µM | TGI (SF-539 CNS): > 100 µM | TGI (XF 498 CNS): > 100 µM | TGI (SK-MEL-2 melanoma): > 100 µM | TGI (EKVX NSCLC): > 100 µM | TGI (MALME-3M melanoma): > 100 µM | TGI (IGROV1 ovarian): > 100 µM | TGI (SNB-19 CNS): > 100 µM | TGI (SK-MEL-28 melanoma): > 100 µM | TGI (KM20L2 colon): > 100 µM | TGI (M14 melanoma): > 100 µM | TGI (K-562 leukemia): > 100 µM | TGI (SW-620 colon): > 100 µM | TGI (LOX IMVI melanoma): > 100 µM | TGI (RXF 393 renal): > 100 µM | TGI (LXFL 529 NSCLC): > 100 µM | TGI (M19-MEL melanoma): > 100 µM | TGI (HL-60(TB) leukemia): 44.5 µM | TGI (COLO 205 colon): > 100 µM | TGI (SN12C renal): > 100 µM | TGI (UACC-62 melanoma): > 100 µM | TGI (SK-OV-3 ovarian): > 100 µM | TGI (NCI-H460 lung): > 100 µM | TGI (RPMI-8226 leukemia): 35.6 µM | TGI (CAKI-1 renal): > 100 µM | TGI (SF-268 CNS): > 100 µM | TGI (HCC-2998 colon): > 100 µM | TGI (SK-MEL-5 melanoma): > 100 µM | TGI (U251 CNS): > 100 µM | TGI (TK-10 renal): > 100 µM | TGI (CCRF-CEM leukemia): > 100 µM | TGI (DMS 114 small cell lung): > 100 µM | TGI (DLD-1 colon): > 100 µM | TGI (UO-31 renal): > 100 µM | TGI (HCT-15 colon): > 100 µM | TGI (HOP-18 NSCLC): > 100 µM | TGI (OVCAR-5 ovarian): > 100 µM | TGI (ACHN renal): > 100 µM | TGI (KM12 colon): > 100 µM | TGI (MOLT-4 leukemia): > 100 µM | TGI (HOP-92 NSCLC): > 100 µM | TGI (HT29 colon): > 100 µM | TGI (DMS 273 small cell lung): > 100 µM | TGI (OVCAR-3 ovarian): > 100 µM | TGI (OVCAR-4 ovarian): > 100 µM | TGI (NCI-H226 lung): > 100 µM | TGI (NCI-H522 lung): > 100 µM | TGI (NCI-H23 lung): > 100 µM | TGI (A549 NSCLC): > 100 µM

O=C(CC1(O)C(=O)Nc2c(Cl)cc(Cl)cc21)c1ccco1 (stereo not drawn)
TGI (HOP-62 NSCLC): > 100 µM | TGI (OVCAR-8 ovarian): > 100 µM | TGI (XF 498 CNS): 67.8 µM | TGI (SK-MEL-2 melanoma): > 100 µM | TGI (EKVX NSCLC): > 100 µM | TGI (MALME-3M melanoma): > 100 µM | TGI (SNB-19 CNS): > 100 µM | TGI (SK-MEL-28 melanoma): > 100 µM | TGI (KM20L2 colon): > 100 µM | TGI (M14 melanoma): > 100 µM | TGI (K-562 leukemia): > 100 µM | TGI (SW-620 colon): > 100 µM | TGI (LOX IMVI melanoma): > 100 µM | TGI (RXF 393 renal): > 100 µM | TGI (LXFL 529 NSCLC): > 100 µM | TGI (HL-60(TB) leukemia): 47.5 µM | TGI (COLO 205 colon): > 100 µM | TGI (SN12C renal): > 100 µM | TGI (SK-OV-3 ovarian): > 100 µM | TGI (NCI-H460 lung): > 100 µM | TGI (RPMI-8226 leukemia): 60.4 µM | TGI (CAKI-1 renal): > 100 µM | TGI (SF-268 CNS): > 100 µM | TGI (HCC-2998 colon): > 100 µM | TGI (SK-MEL-5 melanoma): > 100 µM | TGI (UACC-257 melanoma): > 100 µM | TGI (U251 CNS): > 100 µM | TGI (TK-10 renal): > 100 µM | TGI (CCRF-CEM leukemia): 68.4 µM | TGI (DMS 114 small cell lung): 60 µM | TGI (DLD-1 colon): > 100 µM | TGI (SNB-78 CNS): 99.5 µM | TGI (UO-31 renal): > 100 µM | TGI (HCT-15 colon): > 100 µM | TGI (HOP-18 NSCLC): > 100 µM | TGI (OVCAR-5 ovarian): > 100 µM | TGI (ACHN renal): > 100 µM | TGI (KM12 colon): > 100 µM | TGI (786-0 renal): > 100 µM | TGI (MOLT-4 leukemia): 59.1 µM | TGI (HOP-92 NSCLC): > 100 µM | TGI (HT29 colon): > 100 µM | TGI (SF-295 CNS): > 100 µM | TGI (DMS 273 small cell lung): > 100 µM | TGI (OVCAR-3 ovarian): 57 µM | TGI (OVCAR-4 ovarian): 40.8 µM | TGI (SNB-75 CNS): > 100 µM | TGI (NCI-H226 lung): 71.4 µM | TGI (NCI-H522 lung): > 100 µM | TGI (NCI-H23 lung): > 100 µM | TGI (A549 NSCLC): > 100 µM
